Experimental data from patent US20200345021A1, “METHOD AND SYSTEM FOR ENHANCING THE EFFICACY USING IONIZED/A[…] PEROXIDE IN REDUCING MICROBIAL POPULATIONS, METHOD OF USE THEREOF” (priority 2019, published 2020).
Several values for one entry are separate records, joined by “and”; a condition that tells them apart may be missing. Equal values may be shown once. Read-outs that look alike come from different tables or passages of the source. Marks after values point to notes of the source that are not given here.

Experiments:
Salmonella Typhimurium = type: cell-based
From the text: (§1) To minimize the risk of possible bacteria becoming airborne during treatments, attenuated and non-pathogenic bacteria were used in the study. Two strains of non-pathogenic S. Typhimurium (ATCC 53647 and 53648) and three strains of L. innocua (ATCC 33090, ATCC 51742 and ATCC BAA680) were obtained from American Type Culture Collection (ATCC) (Manassas, Va., USA). Further studies used E. coli O157:H7 (ATCC 700728), S. Typhimurium (ATCC 53647 and 53648), and L. innocua (ATCC 33090) obtained from American Type Culture Collection (ATCC) (Manassas, Va., USA) and maintained as a part of the culture collection at the USDA Eastern Regional Research Center (Wyndmoor, Pa. USA). The bacteria were made to be resistant to nalidixic acid by successive growth in Trypic Soy Broth (TSB) (Difco, Sparks, Md., USA) with increasing nalidixic acid concentrations. All strains were stored at −80° C. in 1 mL of TSB containing 10% glycerol. Working cultures of S. Typhimurium and L. innocua were maintained in 9 mL TSB (supplemented with 100 μg/mL nalidixic acid for S. Typhimurium) at 4° C. after incubating at 37° C. for […], respectively, and sub-cultured each time.
(§2) Each strain of S. Typhimurium and L. innocua was cultured in 9 mL TSB (supplemented with 100 μg/mL nalidixic acid for S. Typhimurium) and incubated at 37° C. for 40 h and 48 h, respectively, harvested by centrifugation at 4000×g for 10 min at 4° C., and resuspended in 9 mL sterile Buffered Peptone Water (BPW; Difco). The pellets were resuspended in BPW to form cell suspensions with a final concentration of 108˜10^9 CFU/mL. Subsequently, suspended pellets of two strains of Salmonella and three strains of L. innocua were combined to obtain two separate culture cocktails.
(§3) Grape tomatoes, granny smith apples, romaine lettuce and cantaloupes were purchased from local markets (Philadelphia, Pa., USA) and kept at 10° C. prior to use. Fruits and vegetables were removed from 10° C. refrigeration and equilibrated to ambient temperature before being inoculated. Romaine lettuce was divided into upper green leaf and midrib tissues. Six tomatoes, six pieces (2×2 cm) of apple skins, five pieces (3×3 cm) of Romaine lettuce upper leaves, five pieces (3 cm length) of Romaine lettuce midrib area and six pieces (2×2 cm) of cantaloupe rinds with 2×3 mm thickness of flesh were used for each treatment per replicate. Bach piece w as spot inoculated with 10 μL of Salmonella and L. innocua by depositing droplets with a micropipette. The inoculated samples were dried in a bio-hood for 1 h (for tomato surfaces, romaine lettuce, apple skins and cantaloupe rinds) or 2 h (for tomato stem scars) at ambient temperature.
(§4) Produce items were placed onto a sterile test tube rack with the inoculated area facing up and the rack with produce pieces were placed inside of a treatment chamber (12×12×24 inch).
(§5) Therefore, each kind of produce was treated with and without cold plasma ionized under the same optimized conditions.
(§6) After each treatment, the tomato stem scars and surfaces with the inoculated bacteria were removed using a pair of sterile scissors. Each type of produce item from the same treatment was combined (total weight: 1.51±0.29 g for tomato stem scars; 2.07±0.15 g for tomato surfaces; 6.37±0.92 g for apple skins; 1.62±0.34 g for Romaine lettuce upper leaves: 13.30±2.97 g for Romaine lettuce midrib tissues: 9.58±1.26 g for cantaloupe rinds) and transferred into an 80 mL filtered stomacher bag. After addition of 30 mL BBL buffered peptone water into the bag, the sample in the bag was homogenized using a mini blender (Mini Mix CC, Interscience laboratories Inc., Woburn, Mass., USA) for 2 min at a setting of 4. […] Tryptic Soy Agar with 200 μg/mL pyruvate acid and 100 μg/mL nalidixic acid (TSA-PN) and PALCAM Agars (Difco) were used for the enumeration of S. Typhimurium and L. innocua, respectively.

Listeria innocua = test: Effect of cold plasma activation on efficacy of ionized/aerosolized H2O2 against Listeria innocua (Study 2); type: cell-based
From the text: as §1, §2, §3, §4, §5, §6

[1] = Cantaloupe rind, 30 s spray time + 30 min dwell
[2] = Romaine lettuce-midrib, 30 s spray time + 30 min dwell
[3] = Romaine lettuce-upper leaf, 30 s spray time + 30 min dwell
[4] = Tomato-stem scar, three cycles of 20 s spray time plus 20 min dwell time
[5] = Tomato-surface, 8 s spray time + 30 min dwell

Compound: OO [H2O2 − cold plasma, hydrogen peroxide]
- Populations of Salmonella Typhimurium (Salmonella Typhimurium; [1]): 4.83 ± 0.36^b log CFU/piece
- Reductions of Salmonella Typhimurium (Salmonella Typhimurium; [1]): 1.54 ± 0.36^y log CFU/piece
- Reductions of Salmonella Typhimurium (Salmonella Typhimurium; Granny Smith apples, 8 s spray time + 30 min dwell): 2.08 ± 0.17^y log CFU/piece
- Populations of Salmonella Typhimurium (Salmonella Typhimurium; Granny Smith apples, 8 s spray time + 30 min dwell, ND: not detectable (detection limit 0.70 log CFU/piece)): 3.77 ± 0.17^b log CFU/piece
- Reductions of Salmonella Typhimurium (Salmonella Typhimurium; Granny Smith apples, 8 s spray time + 30 min dwell, listed as hydrogen peroxide (H2O2) aerosols without cold plasma): 2.08 log CFU/piece
- Populations of Salmonella Typhimurium (Salmonella Typhimurium; [2]): 4.16 ± 0.28^b log CFU/piece
- Reductions of Salmonella Typhimurium (Salmonella Typhimurium; [2]): 1.78 ± 0.28^y log CFU/piece
- Populations of Salmonella Typhimurium (Salmonella Typhimurium; [3]): 4.70 ± 0.23^b log CFU/piece
- Reductions of Salmonella Typhimurium (Salmonella Typhimurium; [3]): 1.72 ± 0.23^y log CFU/piece
- Populations of Salmonella Typhimurium (Salmonella Typhimurium; [4]): 4.40 ± 0.28^b log CFU/piece
- Reductions of Salmonella Typhimurium (Salmonella Typhimurium; [4]): 1.54 ± 0.28^y log CFU/piece
- Reductions of Salmonella Typhimurium (Salmonella Typhimurium; [5]): 3.17 ± 0.33^y log CFU/piece
- Populations of Salmonella Typhimurium (Salmonella Typhimurium; Tomato-surface, 8 s spray time + 30 min dwell, ND: not detectable (detection limit 0.70 log CFU/piece)): 2.46 ± 0.33^b log CFU/piece
- Reductions of Salmonella Typhimurium (Salmonella Typhimurium; Tomato-surface, 8 s spray time + 30 min dwell, listed as hydrogen peroxide (H2O2) aerosols without cold plasma): 3.17 log CFU/piece
- Reductions of Salmonella, range over the fresh produce items (Salmonella Typhimurium; all tested produce items and surfaces, optimized conditions, listed as hydrogen peroxide (H2O2) aerosols without cold plasma): 1.54-3.17 log CFU/piece and 1.53-3.17 log CFU/piece
- Reductions of Listeria innocua (Listeria innocua; [1]): 1.57 ± 0.37^y log CFU/piece
- Populations of Listeria innocua (Listeria innocua; Cantaloupe rind, 30 s spray time + 30 min dwell, ND1: not detectable (detection limit 0.70 log CFU/piece)): 3.88 ± 0.37^b log CFU/piece
- Reductions of Listeria innocua (Listeria innocua; Granny Smith apple, 8 s spray time + 30 min dwell): 2.69 ± 0.20^y log CFU/piece
- Populations of Listeria innocua (Listeria innocua; Granny Smith apple, 8 s spray time + 30 min dwell, ND1: not detectable (detection limit 0.70 log CFU/piece)): 2.90 ± 0.20^b log CFU/piece
- Reductions of Listeria innocua (Listeria innocua; [2]): 3.77 ± 0.35^y log CFU/piece
- Populations of Listeria innocua (Listeria innocua; Romaine lettuce-midrib, 30 s spray time + 30 min dwell, ND2: not detectable (detection limit 0.76 log CFU/piece)): 1.82 ± 0.35^b log CFU/piece
- Reductions of Listeria innocua (Listeria innocua; Romaine lettuce-midrib, 30 s spray time + 30 min dwell, listed as hydrogen peroxide (H2O2) aerosols without cold plasma): 3.77 log CFU/piece
- Reductions of Listeria innocua (Listeria innocua; [3]): 2.77 ± 0.34^y log CFU/piece
- Populations of Listeria innocua (Listeria innocua; Romaine lettuce-upper leaf, 30 s spray time + 30 min dwell, ND2: not detectable (detection limit 0.76 log CFU/piece)): 2.80 ± 0.34^b log CFU/piece
- Populations of Listeria innocua (Listeria innocua; [4]): 4.21 ± 0.60^b log CFU/piece
- Reductions of Listeria innocua (Listeria innocua; [4]): 1.35 ± 0.60^y log CFU/piece
- Reductions of Listeria innocua (Listeria innocua; Tomato-stem scar, three cycles of 20 s spray time plus 20 min dwell time, listed as hydrogen peroxide (H2O2) aerosols without cold plasma): 1.35 log CFU/piece
- Reductions of Listeria innocua (Listeria innocua; [5]): 2.74 ± 0.21^y log CFU/piece
- Populations of Listeria innocua (Listeria innocua; Tomato-surface, 8 s spray time + 30 min dwell, ND1: not detectable (detection limit 0.70 log CFU/piece)): 2.77 ± 0.21^b log CFU/piece
